Assay results: PMC6290556, “1,4-Disubstituted Thiosemicarbazide Derivatives are Potent Inhibitors of Toxoplasma gondii Proliferation” (Molecules, 2014)
Converted amounts (≈) assume the structure as drawn. Read-outs that look alike come from different tables or passages of the source.

What was measured:
[1] = biological target: bacterial topoisomerase IV; parameters: method as in PMID 21080016; conditions: cited from earlier work
T. gondii RH strain = assay: quantitative real-time PCR (B1 gene) of T. gondii in infected L929 cells; assay type: cell-based, Toxoplasma gondii; conditions: assay B qRT-PCR, L929 host cells
Description: T. gondii genomic DNA was isolated from the tachyzoites of RH strain with Wizard® SV Genomic DNA Purification System (Promega, Madison, WI, USA) according to the manufacturer’s instruction. The DNA concentration and purity were measured using a NanoPhotometer (Implen, München, Germany), while the integrity of the extracted DNA was tested using an ethidium bromide-stained agarose gel. DNA was used for the detection and quantitationof T. gondii in analyzed samples and it was stored at −20 °C until use.
A quantitative real-time PCR (qRT-PCR) assay, targeting B1 gene was performed to detect and to quantitate T. gondii in analyzed samples (1g, 2b, 2m, 3d, 3l and sulphadiazine) according to the modified protocol of Wahab et al.. […] Amplification was carried out on a 7900HT real-time PCR system (Applied Biosystems, Carlsbad, CA, USA). The reaction mixtures (25 µL) consisted of 1x TaqMan PCR master mix supplemented with ROX (Applied Biosystems), 300 nM probe, 900 nM of each primer and 2 µL of template DNA. For quantification a standard curve was constructed using 10-fold serial dilutions of DNA extracted from a known number of T. gondii. The cycling parameters were: 50 °C for 2 min, initial activation at 95 °C for 10 min, and 45 two-step cycles of 95 °C for 15 s and 60 °C for 1 min. All samples were analyzed in triplicate.

[2] = tested on: T. gondii RH strain tachyzoites; assay: [3H]uracil incorporation assay of T. gondii proliferation in L929 host cells; assay type: cell-based; conditions: Toxoplasma gondii, L929, read-out: IC50 (50% of T. gondii proliferation inhibition in vitro)
[3] = tested on: T. gondii RH strain tachyzoites; assay: as above; assay type: cell-based, Toxoplasma gondii; conditions: assay A [3H]uracil incorporation, vs untreated blank
Description: In the next step of our studies, the prepared 1,4-disubstituted thiosemicarbazides (series 1–3) were used to assess the inhibition of T. gondii growth in vitro. For this purpose, intracellular parasites (tachyzoites) of RH strain were incubated with different concentrations of the thiosemicarbazides ranging from 1 to 100 µg/mL. Inhibition of the parasite growth was monitored by measuring the specific incorporation of [^3H]uracil in the parasite’s nucleic acids.
The tachyzoites of T. gondii strain RH – intraspecies type I (ATCC_ Number 50174™) were maintained through passages on female C57BL/6 (H-2^b) and BALB/c (H-2^d) mice with genetically determined high and low susceptibility (respectively) to T. gondii infection (10–12 weeks old). Tachyzoites washed out from the peritoneum cavity were once expanded in vitro on L929 cells.
L929, (2 × 10^4 cells/100 µL/well) were grown in complete medium (IMDM) on 96-well plates. After 24 h incubation, a medium was removed and then T. gondii RH tachyzoites, suspended in culture medium supplemented with 1.0, 5.0, 10.0, 50.0 and 100.0 μg/mL 1,4-disubstituted thiosemicarbazides (1g, 2b, 2m, 3d, 3l) and as a control-sulfadiazine, were added (2 × 10^5 tachyzoites/200 µL/well) to the cell monolayers. After subsequent 48 h incubation 1 µCi/well of [^3H] uracil (Moravek Biochemicals Inc., Brea, CA, USA) was applied to each microculture for further 18–20 h. The amount of the isotope incorporated into the parasite nucleic acid pool, corresponding to the parasite growth, was measured by liquid scintillation counting with 1450 Microbeta Plus Liquid Scintillation Counter (Wallac Oy, Turku, Finland).

topoisomerase IV = biological target: T1, topoisomerase IV (Staphylococcus aureus, UniProt P0C1S7+P0C1U9); assay: S. aureus topoisomerase IV decatenation assay; assay type: biochemical
T1 construct: purchased Inspiralis
Description: The assays were performed using S. aureus topoisomerase IV decatenation kits (Inspiralis). Interlinked kDNA substrate ([…]) was incubated with 1 unit of topoisomerase IV (Inspiralis), in the dedicated decatenation assay buffer supplied by the manufacturer, in the presence of varying concentrations of the compounds tested. Reactions were carried out at 37 °C for 1 h and then terminated by the addition of equal volume of 2× STOP Buffer (40% sucrose, 100 mM Tris-Cl pH 7.5, 1 mM EDTA, 0.5 mg/mL bromophenol blue) and chloroform/isoamyl alcohol. Samples were vortexed, centrifuged and run through a 15 cm 1% agarose gel in TAE buffer for 1.5 h at 80 V. Gels were stained with ethidium bromide and visualized under UV light. The concentrations of the inhibitor that prevented 50% of the kinetoplast DNA from being converted into decatenated minicircles (IC50 values) were determined by plotting the results obtained from the densytometric analyses of the gel images using Quantity One software (BioRad, Hercules, CA, USA).

[4] = tested on: Gram-positive and Gram-negative bacterial strains; assay: antibacterial assay (disc diffusion / agar dilution); assay type: cell-based; conditions: even at high concentrations
From the text: The following microorganisms were used in this study: Staphylococcus aureus (ATCC 25923, ATCC 6538, ATCC 29213, NCTC 4163), Staphylococcus epidermidis ATCC 12228, Bacillus subtilis ATCC 6633, Bacillus cereus ATCC 11778, Micrococcus luteus (ATCC 9341, ATCC 10240), Escherichia coli (ATCC 10538, ATCC 25922, NCTC 8196), […] NCTC 4635, Pseudomonas aeruginosa (ATCC 15442, ATCC 27853, NCTC 6749), and Bordetella bronchiseptica ATCC 4617. Initially, antibacterial activity of thiosemicarbazide derivatives was screened on the basis of growth inhibition zone (giz) utilizing the disc diffusion method, according to the Clinical and Laboratory Standards Institute guidelines. For compounds showing the inhibitory effect on the growth of tested bacteria, monitored as an appearance of giz, the minimal inhibitory concentrations (MICs) were determined using agar dilution method, according to the Clinical and Laboratory Standards Institute guidelines. The minimal inhibitory concentrations (MICs) were defined as the lowest concentration of the compound preventing growth of the tested microorganism. In both methods, recommended Mueller-Hinton II agar medium (Becton Dickinson, Heidelberg, Germany) was used. Solutions containing the tested agents were prepared in methanol or DMSO. Ciprofloxacin was used as control antimicrobial agent.

[5] = MTT cell viability assay (ISO 10993-5); assay type: cell-based, mouse; conditions: mouse, 24 h, ± SD
Description: (§1) Cell line L929 (ATTC® Catalog No. […] The MTT assay was used according to international standards: ISO 10993-5:2009(E), Biological evaluation of medical devices, Part 5: Tests for in vitro cytotoxicity. […] Then, 1 mg/mL MTT (50 μL/well) was added to each well and incubated at 37 °C, 10% CO2 for 2 h. Mitochondrial dehydrogenases of viable cells reduced the yellowish water-soluble MTT to water-insoluble formazan crystals, which were solubilized with dimethyl sulfoxide (DMSO). The cell culture medium was aspirated cautiously, after which 150 μL DMSO was added to each well and mixed thoroughly. Optical density (OD) was read on the ELISA reader (Multiskan EX, Labsystems, Vienna, VA, USA) at 550 nm. […] All experiments were performed in triplicate.

DNA gyrase = biological target: T2, DNA gyrase (Staphylococcus aureus, UniProt P0A0K8+P20831); assay: S. aureus gyrase supercoiling assay; assay type: biochemical
T2 construct: purchased Inspiralis
Description: The assays were performed using S. aureus Gyrase Supercoiling Assay Kits (Inspiralis, Norwich, UK). Briefly, […] pBR322 plasmid DNA ([…]) was incubated with 1 unit of gyrase, in the dedicated supercoiling assay buffer supplied by the manufacturer, in the presence of varying concentrations of the compounds tested. Reactions were carried out at 37 °C for 1 h and then terminated by the addition of equal volume of 2 × STOP Buffer (40% sucrose, 100 mM Tris-Cl pH 7.5, 1 mM EDTA, and 0.5 mg/mL bromophenol blue) and chloroform/isoamyl alcohol. Samples were vortexed, centrifuged and run through a 15 cm 1% agarose gel in TAE buffer (40 mM Trisacetate, 2 mM EDTA) for 3 h at 50 V. Gels were stained with ethidium bromide and visualized under UV light.

L929 cells = assay: MTT cell viability assay (ISO 10993-5); assay type: cell-based, mouse; conditions: L929 cells
Description: as §1

[6] = tested on: Gram-positive bacterial species and clinical isolates of Staphylococcus aureus; parameters: method as in PMID 23428849; conditions: all test microorganisms; cited from earlier work
infected cells = tested on: infected cells; parameters: method as in PMID 20541294; conditions: read-out: LC50 for infected cells; cited from earlier work
[7] = read-out: viability of L929 cells

T1 sequence (P0C1U9 whole entry): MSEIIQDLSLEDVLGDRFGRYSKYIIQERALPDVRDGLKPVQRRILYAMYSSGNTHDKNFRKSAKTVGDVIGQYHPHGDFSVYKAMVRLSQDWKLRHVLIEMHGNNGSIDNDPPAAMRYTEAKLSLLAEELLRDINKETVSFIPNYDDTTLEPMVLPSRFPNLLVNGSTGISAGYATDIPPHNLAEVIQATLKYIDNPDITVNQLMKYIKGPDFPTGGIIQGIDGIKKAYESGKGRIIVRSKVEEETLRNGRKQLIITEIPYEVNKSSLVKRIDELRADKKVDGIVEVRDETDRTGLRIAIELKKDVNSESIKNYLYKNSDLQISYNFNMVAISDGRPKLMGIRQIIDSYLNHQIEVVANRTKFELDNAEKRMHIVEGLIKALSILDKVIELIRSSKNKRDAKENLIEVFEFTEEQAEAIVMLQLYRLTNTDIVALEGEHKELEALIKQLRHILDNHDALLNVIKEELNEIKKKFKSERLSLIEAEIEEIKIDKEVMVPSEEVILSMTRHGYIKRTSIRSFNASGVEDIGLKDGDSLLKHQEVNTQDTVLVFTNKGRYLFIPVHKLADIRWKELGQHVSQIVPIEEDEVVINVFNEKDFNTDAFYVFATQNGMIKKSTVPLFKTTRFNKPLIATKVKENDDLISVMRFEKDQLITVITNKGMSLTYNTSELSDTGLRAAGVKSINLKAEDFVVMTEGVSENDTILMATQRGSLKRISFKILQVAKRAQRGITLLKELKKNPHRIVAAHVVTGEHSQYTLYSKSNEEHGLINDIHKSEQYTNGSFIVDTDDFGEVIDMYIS
T1 sequence (P0C1S7 whole entry): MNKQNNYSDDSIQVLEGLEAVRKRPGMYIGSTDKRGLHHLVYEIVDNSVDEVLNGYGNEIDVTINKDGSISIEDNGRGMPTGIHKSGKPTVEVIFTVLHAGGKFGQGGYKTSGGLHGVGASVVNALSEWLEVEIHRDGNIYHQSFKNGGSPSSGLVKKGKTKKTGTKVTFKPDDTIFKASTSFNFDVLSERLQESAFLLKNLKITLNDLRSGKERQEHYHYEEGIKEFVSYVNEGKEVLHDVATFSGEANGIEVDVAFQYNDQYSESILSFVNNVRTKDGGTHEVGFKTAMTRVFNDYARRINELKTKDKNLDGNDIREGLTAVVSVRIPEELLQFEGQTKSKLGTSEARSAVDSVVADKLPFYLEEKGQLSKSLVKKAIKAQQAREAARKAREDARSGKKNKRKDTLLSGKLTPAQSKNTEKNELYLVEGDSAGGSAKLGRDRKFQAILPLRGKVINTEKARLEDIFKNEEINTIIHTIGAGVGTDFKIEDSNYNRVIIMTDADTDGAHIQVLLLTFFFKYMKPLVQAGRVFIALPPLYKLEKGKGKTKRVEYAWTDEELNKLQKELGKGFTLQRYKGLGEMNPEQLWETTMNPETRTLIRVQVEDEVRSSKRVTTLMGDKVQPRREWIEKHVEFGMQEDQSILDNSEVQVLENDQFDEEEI
T2 sequence (P0A0K8 whole entry): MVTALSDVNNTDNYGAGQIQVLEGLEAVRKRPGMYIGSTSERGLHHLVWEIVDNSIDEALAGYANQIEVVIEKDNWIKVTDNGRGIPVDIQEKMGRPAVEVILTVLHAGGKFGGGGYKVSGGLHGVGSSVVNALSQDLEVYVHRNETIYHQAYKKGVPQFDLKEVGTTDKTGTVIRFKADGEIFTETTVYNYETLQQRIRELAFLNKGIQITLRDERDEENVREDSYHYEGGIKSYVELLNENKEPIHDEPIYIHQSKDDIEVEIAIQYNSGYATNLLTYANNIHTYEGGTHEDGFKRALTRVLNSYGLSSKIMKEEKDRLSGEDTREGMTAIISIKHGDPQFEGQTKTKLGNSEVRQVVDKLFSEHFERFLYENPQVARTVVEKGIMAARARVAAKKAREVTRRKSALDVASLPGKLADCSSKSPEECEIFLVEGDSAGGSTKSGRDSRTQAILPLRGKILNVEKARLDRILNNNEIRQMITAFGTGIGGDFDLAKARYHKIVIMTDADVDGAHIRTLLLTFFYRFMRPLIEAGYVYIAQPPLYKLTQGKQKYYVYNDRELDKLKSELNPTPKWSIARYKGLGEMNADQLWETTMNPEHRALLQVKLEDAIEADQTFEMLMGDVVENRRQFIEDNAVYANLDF
T2 sequence (P20831 whole entry): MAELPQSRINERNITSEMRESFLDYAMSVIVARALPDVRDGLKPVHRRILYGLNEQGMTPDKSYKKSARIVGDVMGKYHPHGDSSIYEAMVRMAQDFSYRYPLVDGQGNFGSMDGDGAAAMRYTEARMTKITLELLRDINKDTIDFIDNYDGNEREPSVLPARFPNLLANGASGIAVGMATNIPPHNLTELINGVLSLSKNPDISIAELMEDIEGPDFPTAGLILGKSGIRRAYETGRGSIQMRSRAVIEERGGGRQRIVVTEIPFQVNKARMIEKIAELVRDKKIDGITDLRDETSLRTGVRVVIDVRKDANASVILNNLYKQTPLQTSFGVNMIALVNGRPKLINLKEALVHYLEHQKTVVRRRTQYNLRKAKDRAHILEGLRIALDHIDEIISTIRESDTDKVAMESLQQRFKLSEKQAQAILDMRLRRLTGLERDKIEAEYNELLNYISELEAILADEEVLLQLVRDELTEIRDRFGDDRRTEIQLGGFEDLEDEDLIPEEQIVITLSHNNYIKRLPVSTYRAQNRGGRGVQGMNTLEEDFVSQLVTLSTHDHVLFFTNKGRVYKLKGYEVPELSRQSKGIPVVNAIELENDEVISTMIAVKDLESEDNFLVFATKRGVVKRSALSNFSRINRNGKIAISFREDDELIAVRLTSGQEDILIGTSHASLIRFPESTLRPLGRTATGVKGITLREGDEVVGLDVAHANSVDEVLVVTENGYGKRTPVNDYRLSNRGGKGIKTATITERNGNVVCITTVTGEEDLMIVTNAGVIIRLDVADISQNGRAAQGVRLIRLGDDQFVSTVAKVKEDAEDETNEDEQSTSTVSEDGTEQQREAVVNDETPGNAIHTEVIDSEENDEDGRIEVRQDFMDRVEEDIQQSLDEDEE

In the case of `Cc1nc[nH]c1C(=O)NNC(=S)NC(=O)c1ccccc1` [4-benzoyl-1-(4-methyl-imidazol-5-yl)carbonylthiosemicarbazide], the IC50 [1] is listed as 90 µg/mL (≈ 297 µM).

For `O=C(NC(=S)NNC(=O)c1cc2ccccc2[nH]1)c1ccccc1` [4-benzoyl-1-(indol-2-yl)carbonyl-thiosemicarbazide], the IC50 [1] is listed as 14 µg/mL (≈ 41.4 µM).

With `O=C(NNC(=S)Nc1ccc(F)cc1)c1cccs1` [Compound 1g, 4-(4-fluorophenyl)-1-(thiophen-2-yl)carbonylthiosemicarbazide] the “intensity of T. gondii proliferation” value (T. gondii RH strain; 10 µg/mL) was 61.01 ± 11.23 %, the “intensity of T. gondii proliferation” value (T. gondii RH strain; 50 µg/mL) was 5.00 ± 2.56 % and the IC50 [2] was 33.2 µg/mL (≈ 112 µM). For the same molecule, the “intensity of T. gondii proliferation” value ([3]; 1 µg/mL) was 96.14 ± 14.54%, the “intensity of T. gondii proliferation” value ([3]; 5 µg/mL) was 74.94 ± 7.00 % and the “intensity of T. gondii proliferation” value ([3]; 10 µg/mL) was 44.71 ± 16.60 %. For the same molecule, the “intensity of T. gondii proliferation” value ([3]; 50 µg/mL) was 12.62 ± 4.78 %, the “inhibitory effect on topoisomerase IV” value (topoisomerase IV) was “No inhibitory effect” and the “growth-inhibiting effect on bacterial strains” value [4] was “no growth-inhibiting effect”. The viability at 24 h, 1 µg/mL [5, 7] was 103 ± 2.69%, the viability at 24 h, 5 µg/mL [5, 7] was 99.5 ± 5.16% and the viability at 24 h, 10 µg/mL [5, 7] was 97.3 ± 4.98%. It also gave a viability at 24 h, 50 µg/mL [5, 7] of 79 ± 2.89%, a viability at 24 h, 100 µg/mL [5, 7] of 67 ± 11.4% and a viability at 24 h, 500 µg/mL [5, 7] of 39.8 ± 5.83%. The “inhibitory effect on DNA gyrase” value (DNA gyrase) was “No inhibitory effect”.

With `Cc1nnsc1C(=O)NNC(=S)Nc1ccccc1Br` [Compound 3d] the “intensity of T. gondii proliferation” value (T. gondii RH strain; 50 µg/mL) was 75.13 ± 10.10 %, the “intensity of T. gondii proliferation” value (T. gondii RH strain; 100 µg/mL) was 25.56 ± 6.32 % and the IC50 [2] was 74.9 µg/mL (≈ 201 µM). The “intensity of T. gondii proliferation” value ([3]; 1 µg/mL) was 90.03 ± 14.61%, the “intensity of T. gondii proliferation” value ([3]; 5 µg/mL) was 84.64 ± 15.68% and the “intensity of T. gondii proliferation” value ([3]; 10 µg/mL) was 83.84 ± 19.01%. For the same molecule, the “intensity of T. gondii proliferation” value ([3]; 50 µg/mL) was 63.82 ± 5.32 %, the “intensity of T. gondii proliferation” value ([3]; 100 µg/mL) was 36.52 ± 5.16 % and the viability at 24 h, 1 µg/mL ([5]; L929 mouse fibroblast cells) was 102 ± 3.89%. The viability at 24 h, 5 µg/mL ([5]; L929 mouse fibroblast cells) was 99.14 ± 0.82%, the viability at 24 h, 10 µg/mL ([5]; L929 mouse fibroblast cells) was 97.5 ± 5.98% and the viability at 24 h, 50 µg/mL ([5]; L929 mouse fibroblast cells) was 90.9 ± 6.71%. The viability at 24 h, 100 µg/mL ([5]; L929 mouse fibroblast cells) was 79.5 ± 5.82%, the viability at 24 h, 500 µg/mL ([5]; L929 mouse fibroblast cells) was 41.5 ± 5.16% and the “CC30 (concentration required for 30% proliferation inhibition in vitro)” value (L929 cells) was 242.56 µg/mL. The antibacterial screening [6] was “ineffective”.

With `Cc1nnsc1C(=O)NNC(=S)Nc1ccc(F)cc1F` [Compound 3l] the “intensity of T. gondii proliferation” value (T. gondii RH strain; 50 µg/mL) was 89.32 ± 15.74 %, the “intensity of T. gondii proliferation” value (T. gondii RH strain; 100 µg/mL) was 14.08 ± 3.35 % and the IC50 [2] was 92.3 µg/mL (≈ 280 µM). The “intensity of T. gondii proliferation” value ([3]; 1 µg/mL) was 84.59 ± 16.61%, the “intensity of T. gondii proliferation” value ([3]; 5 µg/mL) was 85.76 ± 19.71% and the “intensity of T. gondii proliferation” value ([3]; 10 µg/mL) was 103.21 ± 19.27%. The “intensity of T. gondii proliferation” value ([3]; 50 µg/mL) was 88.34 ± 14.40 %, the “intensity of T. gondii proliferation” value ([3]; 100 µg/mL) was 37.20 ± 7.47 % and the viability at 24 h, 1 µg/mL ([5]; L929 mouse fibroblast cells) was 96.54 ± 0.69%. For the same molecule, the viability at 24 h, 5 µg/mL ([5]; L929 mouse fibroblast cells) was 92.87 ± 0.23%, the viability at 24 h, 10 µg/mL ([5]; L929 mouse fibroblast cells) was 95.89 ± 0.39% and the viability at 24 h, 50 µg/mL ([5]; L929 mouse fibroblast cells) was 99 ± 10%. The viability at 24 h, 100 µg/mL ([5]; L929 mouse fibroblast cells) was 89.5 ± 3.44%, the viability at 24 h, 500 µg/mL ([5]; L929 mouse fibroblast cells) was 48 ± 10.1% and the “CC30 (concentration required for 30% proliferation inhibition in vitro)” value (L929 cells) was 285.52 µg/mL. For the same molecule, the antibacterial screening [6] was “ineffective”.

For `NC(=O)NO` [hydroxyurea], the CC50 (infected cells) is given as greater than 10 mM.

For `Nc1ccc(S(=O)(=O)Nc2ncccn2)cc1` [sulfadiazine, reference compound], the “intensity of T. gondii proliferation” value (T. gondii RH strain; 100 µg/mL) is given as 63.99 ± 10.58 %, the IC50 [2] is given as greater than 500 µg/mL and the CC50 (infected cells) is given as greater than 10 mM.
